Experimental data reported in US11752116B2, “Method of viral inhibition” (priority 2013, dated 2023).

Tests used:
[1] = system: DENV-2; assay: Delayed addition in DENV-2 infected Huh-7 cells, NS1 RNA by qPCR; assay type: cell-based
Method: To gain further insight into the mode of action of 4-HPR, the human liver carcinoma cell line, Huh-7 cells were infected with DENV-2 (MOI of 1), followed by delayed addition of drug diluent DMSO (DENV only), 7.5 μM 4-HPR, 7.5 μM 4-MPR or 10 μM NITD008 (a previously described adenosine nucleoside inhibitor), 12 h post infection. Cells were lysed at the indicated times, RNA was extracted by Trizol and analysed by qPCR with fold change in expression of NS1 calculated relative to the untreated control (FIG. 5B). Concurrently, culture medium was collected and viral titres determined by plaque assay (FIG. 5C).

[2] = target: DENV-2 NS5 / IMPα/β (Dengue virus type 2, UniProt P14340); assay: AlphaScreen binding of His6-NS5 to IMPα/β heterodimer; details: 3 nM His6-NS5, 10 nM IMPα/β, increasing concentrations of compound
Method: AlphaScreen®, a luminescent bead-based assay that measures direct protein-protein interactions, was used to examine the binding of 3 nM His6-NS5 to 10 nM IMPα/β (IMPα/β heterodimer containing biotinylated IMPβ1) in the presence of increasing concentrations of 4-HPR, 4-MPR or ATRA (FIG. 1A), or 4-oxo-4-HPR, 4-HPR or 4-MPR (FIG. 1B). Data are the mean±standard deviation (SD) of triplicate wells from a single typical experiment.
To investigate the specificity of 4-HPR inhibition of NS5-importin association, the binding of 30 nM His6-NS5 to 10 nM IMPα/β, (IMPα/β heterodimer containing biotinylated IMPβ1), 3 nM IMPαΔIBB (biotinylated IMPa with the IMPβ-binding domain removed), or 3 nM biotinylated IMPβ1, in the presence of increasing concentrations of 4-HPR, was investigated.

[3] = system: DENV-2; assay: DENV-2 infectivity assay in Vero cells, viral RNA copies in culture medium by RT-PCR; assay type: cell-based; details: MOI of 1; for effect on DENV infection (viral RNA copies at 24 h p.i.): 10 μM compound
Method: To test the specificity of 4-HPR and 4-oxo-4-HPR for anti-DENV activity Vero cells were infected with DENV-2 with a multiplicity of infection (MOI) of 1, in the presence of drug diluent (untreated) or the indicated compounds (10 μM in FIG. 3A, or 10 μM or 5 μM as indicated in FIG. 3B) for 2 h, followed by removal of the virus/drug inoculums, and addition of fresh 2% FCS maintenance medium. At 24 h post infection (p.i.) the culture medium was collected and the viral RNA extracted using QIAamp viral RNA mini kit (Qiagen). Absolute RNA copies present in each sample were determined by Taqman One Step RT-PCR (Applied Biosystems), as an estimate of virus titre by extrapolation from a standard curve generated from in vitro transcribed DENV RNA. Data shown are the mean+standard error of the mean (SEM) for 3 (FIG. 3A) or 2 (FIG. 3B) independent experiments. Statistical analysis (Student's ttest) was performed using GraphPad Prism software.

[4] = system: DENV-2; assay: Cell-based flavivirus immunodetection assay in BHK-21 cells, DENV-2; details: BHK-21 cells, 48 h p.i.
Method: (§1) To investigate this, BHK-21 cells were infected with DENV serotypes 1, 2, 3 or 4 (MOI of 0.3) for 1 h in the presence of 4-HPR or 4-MPR (concentrations as indicated in FIG. 6A). Virus inoculum was removed and fresh media containing the indicated compounds was added. Virus infection rates were determined 48 h p.i. using a cell-based flavivirus immunodetection assay. Briefly, cells were fixed and stained for DENV structural protein, E, followed by addition of Alexa Fluor 488 anti-mouse IgG. Viral antigen quantification was performed using Imagexpress. Data shown are representative of a single experiment

[5] = system: West Nile virus, Kunjin strain (WNVKUN); assay: West Nile virus (Kunjin strain) infection of Vero cells, plaque assay; assay type: cell-based; details: Vero cells
Method: FIG. 9C. Viral titre from a plaque assay conducted from Vero cells infected with West Nile virus (Kunjin strain; WNVKUN) after treatment with 10 μM 4-HPR for 4 h.

[6] = system: DENV-3; assay: Cell-based flavivirus immunodetection assay in BHK-21 cells, DENV-3; details: 48 h p.i.
Method: as §1

[7] = system: DENV-1; assay: Cell-based flavivirus immunodetection assay in BHK-21 cells, DENV-1; details: 48 h p.i.
Method: as §1

[8] = system: CHIKV; assay: CHIKV infection of HEK293T cells, plaque assay; assay type: cell-based; details: 5 μM, 24 h p.i.
Method: HEK293T cells were treated with 5 μM 4-HPR or 4-MPR for 2 h, then infected with CHIKV for 1 h (MOI of 0.1) in the absence of compound (FIG. 9A). Alternatively, HEK293T cells were infected with CHIKV for 1 h (MOI of 0.1) without pre-treating the cells with compound (FIG. 9B). In both instances, virus inoculums were removed, then fresh medium containing the indicated compound was added (FIG. 9A and FIG. 9B). Infectious virus titres were determined by plaque assay 24 h p.i. Data are the mean+standard deviation of one experiment performed in duplicate wells, represented as plaque forming units per ml (PFU/ml).

[9] = system: DENV-4; assay: Cell-based flavivirus immunodetection assay in BHK-21 cells, DENV-4; details: BHK-21 cells, 48 h p.i.
Method: as §1

[10] = system: DENV-1; assay: ADE-mediated DENV-1 infection of human PBMCs, plaque assay; assay type: cell-based; details: ADE-mediated DENV-1 infection, 48 h
Method: The antiviral activity of 4-HPR was investigated in the more physiologically relevant human system of peripheral blood mononuclear cells (PBMCs), a major target of DENV infection in humans.
PBMCs were prepared from a healthy donor buffy coat using a Ficoll gradient, prior to ADE-mediated DENV-1 infection (MOI of 10) in the presence of increasing concentrations of 4-HPR or 4-MPR, and infectious virus titres determined by plaque assay 48 h later.

C#C[C@@]1(O)[C@H](O)[C@@H](CO)O[C@H]1n1ccc2c(N)ncnc21 [NITD008]
viral RNA levels (NS1 qPCR) ([1]; 10 μM added 12 h p.i.): reduced RNA levels

CC1=C(/C=C/C(C)=C/C=C/C(C)=C/C(=O)O)C(C)(C)CCC1 [ATRA, all-trans retinoic acid]
block of association of DENV-2 NS5 with IMPα/β [2]: neither ATRA nor 4-MPR were able to disrupt association | effect on DENV infection (viral RNA copies at 24 h p.i.) [3]: no effect on DENV infection

COc1ccc(NC(=O)/C=C(C)/C=C/C=C(C)/C=C/C2=C(C)CCCC2(C)C)cc1 [4-MPR, N-(4-methoxyphenyl) retinamide]
effect on replication of DENV serotype 2 [4]: did not have any effect | antiviral activity against WNVKUN [5]: no antiviral activity | effect on replication of DENV serotype 3 [6]: did not have any effect | effect on replication of DENV serotype 1 [7]: did not have any effect | reduction of infectious CHIKV produced ([8]; HEK293T cells pre-treated 2 h with compound): did not reduce CHIKV titres | reduction of infectious CHIKV produced ([8]; HEK293T cells, compound added after infection): did not reduce CHIKV titres | block of association of DENV-2 NS5 with IMPα/β [2]: neither ATRA nor 4-MPR were able to disrupt association | effect on DENV infection (viral RNA copies at 24 h p.i.) [3]: no effect on DENV infection | viral RNA levels (NS1 qPCR) ([1]; 7.5 μM added 12 h p.i., up to 60 h p.i.): viral RNA levels increased steadily until 60 h p.i. | effect on replication of DENV serotype 4 [9]: did not have any effect | reduction of infectious virus titre in infected PBMCs [10]: no reduction

C/C(=C\c1ccc(C(=O)O)cc1)c1ccc2c(c1)C(C)(C)CCC2(C)C [arotinoid acid]
effect on DENV infection (viral RNA copies at 24 h p.i.) [3]: no effect on DENV infection

CC1=C(/C=C/C(C)=C/C=C/C(C)=C\C(=O)O)C(C)(C)CCC1 [13-cis retinoic acid]
effect on DENV infection (viral RNA copies at 24 h p.i.) [3]: no effect on DENV infection

CC1=C(/C=C/C(C)=C/C=C/C(C)=C/C(=O)Nc2ccc(O)cc2)C(C)(C)CCC1=O [4-oxo-4-HPR, N-(4-hydroxyphenyl)-4-oxoretinamide]
block of association of DENV-2 NS5 with IMPα/β [2]: able to block association | reduction in viral RNA copies at 24 h p.i. ([3]; 5 μM compound for 2 h during infection): 1 log
